Assay results from patent US11351125B2, “Poly(n-butyl cyanoacrylate) nanoparticle with dual modifications, preparation method and use thereof” (Xuanwu Hospital of Capital Medical University, priority 2016, dated 2022).

Experiments:
[1] = rat
Procedure: (2) Method: 6- to 8-week old male Wistar rats were randomly divided into 3 groups, with 6 rats for each group. The rats were anesthetized by intraperitoneal injection of a pentobarbital solution (40 mg/kg), and jugular vein catheterization was performed. […] After treatment, the content of coumarin-6 in the blood was determined.

[2] = Brain tissue distribution of coumarin-6 in rats, Experiment 1 (time course); format: in vivo, Wistar rats; conditions: rat, tail vein injection
Procedure: (1) Method: 6- to 8-week old male Wistar rats were randomly divided into 3 groups, with 21 rats for each group. The rats were subjected to tail vein injection with an equimolar amount of a coumarin-6 solution (a free drug), coumarin-6-loaded nanoparticles with single modification by cholesterol and PBCA nanoparticles with dual modifications by PEG20000-cholesterol as prepared in Example 1, respectively. The rats were killed at different time points (15 min, 30 min, 1 h, 2 h, 4 h, 8 h, 12 h) after administration, brain tissues were taken, and the content of coumarin-6 in brain was determined.

[3] = Pharmacokinetics of docetaxel after intravenous administration in rats; format: in vivo, Wistar rats; conditions: rat, HPLC
Procedure: 6- to 8-week old male Wistar rats were subjected to jugular vein catheterization. […] The rats were administered with a docetaxel solution (a free drug) and docetaxel-loaded PBCA nanoparticles with dual modifications by PEG20000-cholesterol, respectively. […] After treatment, the content of docetaxel in the blood was determined by HPLC.

[4] = Brain tissue distribution of docetaxel in rats; format: in vivo, Wistar rats; conditions: rat, tail vein injection, HPLC
Procedure: The rats were subjected to tail vein injection with a docetaxel solution (a free drug), and docetaxel-loaded PBCA nanoparticles with dual modifications by PEG20000-cholesterol, respectively. The rats were killed at different time points after administration, respectively, and the brain tissues were taken, washed with physiological saline and weighed. After treatment, the content of docetaxel in the brain tissue was determined by HPLC.

[5] = test system: 4T1 cells (mouse breast cancer cells); assay: Inhibition of tumor cell proliferation in vitro, MTT; format: cell-based; conditions: 0.0001 nmol/ml (as docetaxel), 24 h
Procedure: (2) Method: MTT method was used to determine the proliferation state of tumor cells. The particular steps were as followed: 4T1 cells (mouse breast cancer cells) in the logarithmic growth phase were digested and counted, and then seeded to a 96-well plate at a density of 5×10^4/well. […] After further incubation for 24 h and 48 h, respectively, the old medium was pipetted off, and a medium containing 0.5 mg/ml MTT was added to each well. After further incubation for 4 h, the medium was pipetted off, and washing with PBS was performed twice. DMSO (200 μl) was added to dissolve the formazan crystal, and shaking was performed in dark for 10 min; and then the OD value of each well at 490 nm was determined by ELISA instrument. The OD value of the cells incubated without the addition of drug was used as control (100%), and the cell viability for each drug groups were calculated, so as to study the proliferation state of tumor cells, wherein 5 parallel wells were set for each group.

Row | Compound | release time in vivo (coumarin-6 detectable in blood) [1] | AUC0-t ([1]; in vivo, iv) | AUC0-∞ ([1]; in vivo, iv) | C0 ([1]; in vivo, iv) | CL ([1]; in vivo, iv) | Vd, λz ([1]; in vivo, iv) | t1/2, λz ([1]; in vivo, iv) | content of coumarin-6 in the brain tissue ([2]; 15 min-12 h) | coumarin-6 in the brain tissue 8 h after administration ([2]; 8 h) | sustained release in vivo (docetaxel detectable in blood) [3] | docetaxel in the brain after intravenous administration [4] | cell viability of the tumor cells [5]
1 | coumarin-6 [Free drug] | ≤ 4 h | 15.8 ± 2.4 µg·min/mL | 16.0 ± 2.3 µg·min/mL | 828.4 ± 139.0 ng/mL | 6.4 ± 0.9 mL/min | 0.6 ± 0.3 L | 1 ± 0.4 h | ≤ 50 ng/g brain tissue | no coumarin-6 was detected |  |  | 
2 | CC(=O)O[C@@]12CO[C@@H]1C[C@H](O)[C@@]1(C)C(=O)[C@H](O)C3=C(C)[C@@H](OC(=O)[C@H](O)[C@@H](NC(=O)OC(C)(C)C)c4ccccc4)C[C@@](O)([C@@H](OC(=O)c4ccccc4)[C@H]21)C3(C)C [docetaxel] |  |  |  |  |  |  |  |  |  | < 2 h | could not be detected in the brain | no significant change
